The results in this text go back to ChEMBL document CHEMBL1137954, “Carbonic anhydrase inhibitors: inhibition of the tumor-associated isozyme IX with fluorine-containing sulfonamides. The first subnanomolar CA IX inhibitor discovered” (Bioorg Med Chem Lett, 2004).

As a reminder, the Ki is the dissociation constant of the complex between target and ligand, obtained from inhibition or displacement. Read a high Ki as a looser hold on the target.

Targets include Carbonic anhydrase 9 (Homo sapiens, UniProt Q16790); Carbonic anhydrase 2 (Homo sapiens, UniProt P00918); Carbonic anhydrase 1 (Homo sapiens, UniProt P00915).

Chain of Carbonic anhydrase 1 (P00915 whole entry): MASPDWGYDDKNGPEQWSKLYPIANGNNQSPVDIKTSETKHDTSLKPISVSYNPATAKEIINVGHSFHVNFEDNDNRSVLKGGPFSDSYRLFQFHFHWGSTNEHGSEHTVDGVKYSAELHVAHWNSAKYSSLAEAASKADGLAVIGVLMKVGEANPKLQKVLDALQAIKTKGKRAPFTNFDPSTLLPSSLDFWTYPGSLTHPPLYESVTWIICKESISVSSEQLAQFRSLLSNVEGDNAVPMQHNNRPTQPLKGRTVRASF
Description for Carbonic anhydrase 1: Inhibitory activity against human carbonic anhydrase I
Description for Carbonic anhydrase 2: Inhibitory activity against human carbonic anhydrase II
Description for Carbonic anhydrase 9: Inhibitory activity against human carbonic anhydrase IX

With `NS(=O)(=O)c1ccc(CNS(=O)(=O)c2c(F)c(F)cc(F)c2F)cc1`, the inhibition constant Ki came out at 8.5 nM at Carbonic anhydrase 9, 12 nM on Carbonic anhydrase 2 and 860 nM on Carbonic anhydrase 1.

As to `NS(=O)(=O)c1ccc(CCNS(=O)(=O)c2c(F)c(F)cc(F)c2F)cc1`, the Ki amounted to 7 nM on Carbonic anhydrase 9, 9 nM at Carbonic anhydrase 2 and 750 nM on Carbonic anhydrase 1.

As to `NS(=O)(=O)c1ccc(CNS(=O)(=O)c2ccc(NC(=O)c3c(F)c(F)cc(F)c3F)cc2)cc1`, the figures for the Ki at Carbonic anhydrase 2 and at Carbonic anhydrase 1 were 15 nM and 6100 nM, respectively.

Regarding `NS(=O)(=O)c1nnc(NS(=O)(=O)c2c(F)c(F)cc(F)c2F)s1`, the Ki at Carbonic anhydrase 9 was 4.3 nM; at Carbonic anhydrase 2 it was 0.7 nM; at Carbonic anhydrase 1 it was 13 nM.

With `NS(=O)(=O)c1ccc(CNC(=O)c2c(F)c(F)cc(F)c2F)cc1`, the values for the Ki on Carbonic anhydrase 9, at Carbonic anhydrase 2 and on Carbonic anhydrase 1 were 9.5 nM, 13 nM and 980 nM, respectively.

Consider `NS(=O)(=O)c1ccc(NC(=O)c2c(F)c(F)cc(F)c2F)c(Cl)c1`, for which the results for the Ki at Carbonic anhydrase 9, on Carbonic anhydrase 2 and on Carbonic anhydrase 1 were 16 nM, 76 nM and 1080 nM, respectively.

On to `NS(=O)(=O)c1ccc(NC(=O)c2c(F)c(F)cc(F)c2F)c(F)c1`, for which the Ki came to 24 nM on Carbonic anhydrase 9, 1.5 nM on Carbonic anhydrase 2 and 760 nM on Carbonic anhydrase 1.

Regarding `NS(=O)(=O)c1ccc(NC(=O)c2c(F)c(F)cc(F)c2F)c(Br)c1`, the figures for the Ki on Carbonic anhydrase 9, on Carbonic anhydrase 2 and on Carbonic anhydrase 1 were 4.8 nM, 84 nM and 1870 nM, respectively.

On to `NS(=O)(=O)c1ccccc1NC(=O)c1c(F)c(F)cc(F)c1F`, for which the Ki on Carbonic anhydrase 9 is 9.5 nM; on Carbonic anhydrase 2 it was 38 nM; on Carbonic anhydrase 1 it was 1500 nM.

As for `NS(=O)(=O)c1nnc(NC(=O)c2c(F)c(F)cc(F)c2F)s1`, the Ki on Carbonic anhydrase 9 amounted to 12.6 nM; at Carbonic anhydrase 2, 2.1 nM; on Carbonic anhydrase 1 it was 250 nM.

For `NS(=O)(=O)c1ccc(NC(=O)c2c(F)c(F)cc(F)c2F)cc1`, the Ki at Carbonic anhydrase 9 was 15.2 nM; at Carbonic anhydrase 2, 16 nM; at Carbonic anhydrase 1, 975 nM.

Consider `Cn1nc(S(N)(=O)=O)s/c1=N\C(=O)c1c(F)c(F)cc(F)c1F`, for which the Ki at Carbonic anhydrase 9 stood at 10.5 nM; on Carbonic anhydrase 2, 1.4 nM; on Carbonic anhydrase 1, 270 nM.

`NS(=O)(=O)c1ccc(CCNS(=O)(=O)c2ccc(NC(=O)c3c(F)c(F)cc(F)c3F)cc2)cc1`: the inhibition constant (Ki) at Carbonic anhydrase 9 came to 7.6 nM; on Carbonic anhydrase 2, 13 nM; at Carbonic anhydrase 1, 6000 nM.

Take `NS(=O)(=O)c1cccc(NC(=O)c2c(F)c(F)cc(F)c2F)c1`: the Ki on Carbonic anhydrase 9 came out at 0.8 nM; on Carbonic anhydrase 2, 21 nM; at Carbonic anhydrase 1 it was 1700 nM.

Turning to `NS(=O)(=O)c1ccc(CCNC(=O)c2c(F)c(F)cc(F)c2F)cc1`, the Ki at Carbonic anhydrase 9 worked out at 7.3 nM; on Carbonic anhydrase 2 it was 12 nM; on Carbonic anhydrase 1, 900 nM.

Regarding `NS(=O)(=O)c1ccc(NS(=O)(=O)c2ccc(NC(=O)c3c(F)c(F)cc(F)c3F)cc2)cc1`, the Ki was 3.2 nM on Carbonic anhydrase 9, 19 nM at Carbonic anhydrase 2 and 6300 nM at Carbonic anhydrase 1.
